Data reported in patent US20220306695A1, “COMPSTATIN ANALOGUES AND THEIR MEDICAL USES” (priority 2019, published 2022).
pIC50: −log10 of the molar value. Read-outs that look alike come from different tables or passages of the source. Positions of bridges follow the written chain, without caps; N, C: chain ends. Non-standard residues stand in square brackets, D forms with d. Residues, ends and D or L forms follow the SMILES beside them. Sar = CNCC(=O)O

Test system: classical complement pathway
Assay: In vitro haemolysis assay (inhibition of classical complement pathway)
Assay type: cell-based, human
Conditions: for IC50: Table 3, human serum, sensitized sheep red blood cells, read-out: IC50[nM], in vitro analysis of inhibition of hemolysis; for pIC50: Table 4, valine 3 versus isoleucine 3 pairs, read-out: CP hemolysis IC50
Method: Method The in vitro effect of test compounds was assessed by measuring their inhibitory effect of the classical complement pathway in a haemolysis assay. Briefly, test compounds and reference compounds were dissolved in DMSO and diluted in Tris/Casein Assay Buffer (10 mM Tris, 145 mM NaCl, 0.5 mM MgCl2, 0.15 mM CaCl2, and 0.1% W/V Casein, adjusted to pH 7.4) as 9-point serial dilutions in a 96 well plate. Sensitized sheep red blood cells (RBC) coated with rabbit anti-sheep erythrocyte antiserum (Complement Technology, Inc., TX, USA) were washed in Tris/Casein Assay Buffer. 50 μL from each well of diluted compound was added to a 96-well plate containing 50 μL diluted human serum (Complement Technology, Inc., TX, USA) and incubated for 15 minutes at room temperature. The serum dilution factor was optimized for every serum batch to obtain 70-90% of maximal haemolysis using the protocol. Then 50 μL sensitized sheep red blood cells were added to all wells ([…] per well). After 30 minutes of incubation at 37° C. with gentle agitation, the reaction was stopped by addition of 50 μL Tris STOP Buffer per well (10 mM EDTA, 10 mM Tris, 145 mM NaCl adjusted to pH 7.4). The RBCs were then removed by centrifugation and the resulting supernatant measured for hemolysis by absorbance at 405 nm. The response was normalized relative to a positive and negative control (vehicle) to calculate the IC50 from the concentration response curve using the 4-parameter logistic (4PL) nonlinear model for curve fitting.

Question: How did the IC50 turn out when `CC[C@H](C)[C@H](NC(C)=O)C(=O)N[C@H]1CSSC[C@@H](C(=O)N[C@H](C(N)=O)[C@@H](C)O)NC(=O)[C@H](CCCNC(=N)N)NC(=O)[C@H](Cc2c[nH]cn2)NC(=O)[C@H](CCC(=O)O)NC(=O)CNC(=O)[C@H](Cc2c[nH]c3ccccc23)NC(=O)[C@H](CCCCN)NC(=O)[C@H](CCC(N)=O)NC(=O)[C@H](Cc2c[nH]c3ccccc23)NC(=O)[C@H]([C@@H](C)CC)NC1=O` [Compound 7] (Ac-ICIWQKWGEHRCT-NH2; disulfide 2-12) was run?
Answer: < 1000 nM

Question: For `CC[C@H](C)[C@H](NC(C)=O)C(=O)N[C@H]1CSSC[C@@H](C(=O)N[C@H](C(=O)NCC(=O)N[C@@H](C)C(=O)N[C@@H](CCC(=O)O)C(=O)N[C@@H](CO)C(N)=O)[C@@H](C)O)NC(=O)[C@H](CCCNC(=N)N)NC(=O)[C@H](Cc2c[nH]cn2)NC(=O)[C@H](C)NC(=O)CNC(=O)[C@H](Cc2c[nH]c3ccccc23)NC(=O)[C@H](CCCCN)NC(=O)[C@H](CCC(N)=O)NC(=O)[C@H](Cc2c[nH]c3ccccc23)NC(=O)[C@H]([C@@H](C)CC)NC1=O` [Compound 8] (Ac-ICIWQKWGAHRCTGAES-NH2; disulfide 2-12), which IC50 is on record?
Answer: < 500 nM

Question: `CC[C@H](C)[C@@H]1NC(=O)[C@@H](NC(=O)[C@H](Cc2ccc(O)cc2)NC(C)=O)CSSC[C@@H](C(=O)N[C@H](C(N)=O)[C@@H](C)O)NC(=O)[C@H](CCCNC(=N)N)NC(=O)[C@H](Cc2c[nH]cn2)NC(=O)[C@H](CCC(=O)O)NC(=O)CNC(=O)[C@H](Cc2c[nH]c3ccccc23)NC(=O)[C@H](CC(=O)O)NC(=O)[C@H](CCC(N)=O)NC(=O)[C@H](Cc2c[nH]c3ccccc23)NC1=O` [Compound 9] (Ac-YCIWQDWGEHRCT-NH2; disulfide 2-12) was tested. Which IC50 did it give?
Answer: < 100 nM

Question: How did the IC50 turn out when `CC[C@H](C)[C@@H]1NC(=O)[C@@H](NC(=O)[C@H](Cc2ccc(O)cc2)NC(=O)[C@H](C)NC(=O)[C@H](CO)NC(=O)[C@H](CO)NC(=O)[C@H](CCC(=O)O)NC(C)=O)CSSC[C@@H](C(=O)N[C@H](C(N)=O)[C@@H](C)O)NC(=O)[C@H](CCCNC(=N)N)NC(=O)[C@H](Cc2c[nH]cn2)NC(=O)[C@H](CCC(=O)O)NC(=O)CNC(=O)[C@H](Cc2c[nH]c3ccccc23)NC(=O)[C@H](CC(=O)O)NC(=O)[C@H](CCC(N)=O)NC(=O)[C@H](Cc2c[nH]c3ccccc23)NC1=O` [Compound 10] (Ac-ESSAYCIWQDWGEHRCT-NH2; disulfide 6-16) was run?
Answer: < 100 nM

Question: `CC[C@H](C)[C@@H]1NC(=O)[C@@H](NC(=O)CN(C)C(C)=O)CSSC[C@@H](C(=O)N[C@H](C(N)=O)[C@@H](C)O)NC(=O)[C@H](CCCNC(=N)N)NC(=O)[C@H](Cc2c[nH]cn2)NC(=O)[C@H](CCC(=O)O)NC(=O)CNC(=O)[C@H](Cc2c[nH]c3ccccc23)NC(=O)[C@H](CC(=O)O)NC(=O)[C@H](CCC(N)=O)NC(=O)[C@H](Cc2c[nH]c3ccccc23)NC1=O` [Compound 11] (Ac-[Sar]CIWQDWGEHRCT-NH2; disulfide 2-12) was tested. Which IC50 did it give?
Answer: < 100 nM

Question: For `CC[C@H](C)[C@H](NC(C)=O)C(=O)N[C@H]1CSSC[C@@H](C(=O)N[C@@H](CCC(=O)O)C(N)=O)NC(=O)[C@H](CCCNC(=N)N)NC(=O)[C@H](Cc2c[nH]cn2)NC(=O)[C@H](C)NC(=O)CNC(=O)[C@H](Cc2c[nH]c3ccccc23)NC(=O)[C@H](CC(=O)O)NC(=O)[C@H](CCC(N)=O)NC(=O)[C@H](Cc2c[nH]c3ccccc23)NC(=O)[C@H]([C@@H](C)CC)NC1=O` [Compound 12] (Ac-ICIWQDWGAHRCE-NH2; disulfide 2-12), which IC50 is on record?
Answer: < 100 nM

Question: `CC[C@H](C)[C@H](NC(C)=O)C(=O)N[C@H]1CSSC[C@@H](C(=O)N(C)CC(N)=O)NC(=O)[C@H](CCCNC(=N)N)NC(=O)[C@H](Cc2c[nH]cn2)NC(=O)[C@H](CCC(=O)O)NC(=O)CNC(=O)[C@H](Cc2c[nH]c3ccccc23)NC(=O)[C@H](CC(=O)O)NC(=O)[C@H](CCC(N)=O)NC(=O)[C@H](Cc2c[nH]c3ccccc23)NC(=O)[C@H]([C@@H](C)CC)NC1=O` [Compound 13] (Ac-ICIWQDWGEHRC[Sar]-NH2; disulfide 2-12) was tested. Which IC50 did it give?
Answer: < 100 nM

Question: `CC[C@H](C)[C@H](NC(C)=O)C(=O)N[C@H]1CSSC[C@@H](C(=O)N[C@H](C(N)=O)[C@@H](C)O)NC(=O)[C@H](CCCNC(=N)N)NC(=O)[C@H](Cc2c[nH]cn2)NC(=O)[C@H](CCC(=O)O)NC(=O)CNC(=O)[C@H](Cc2c[nH]c3ccccc23)NC(=O)[C@H](CCC(=O)O)NC(=O)[C@H](CCC(N)=O)NC(=O)[C@H](Cc2c[nH]c3ccccc23)NC(=O)[C@H]([C@@H](C)CC)NC1=O` [Compound 16] (Ac-ICIWQEWGEHRCT-NH2; disulfide 2-12) was tested. Which IC50 did it give?
Answer: < 100 nM

Question: How did the IC50 turn out when `CC[C@H](C)[C@H](NC(C)=O)C(=O)N[C@H]1CSSC[C@@H](C(=O)N[C@H](C(N)=O)[C@@H](C)O)NC(=O)[C@H](CCCNC(=N)N)NC(=O)[C@H](Cc2c[nH]cn2)NC(=O)[C@H](CC(=O)O)NC(=O)CNC(=O)[C@H](Cc2c[nH]c3ccccc23)NC(=O)[C@H](CC(=O)O)NC(=O)[C@H](CCC(N)=O)NC(=O)[C@H](Cc2c[nH]c3ccccc23)NC(=O)[C@H]([C@@H](C)CC)NC1=O` [Compound 17] (Ac-ICIWQDWGDHRCT-NH2; disulfide 2-12) was run?
Answer: < 100 nM

Question: Which IC50 does the source give for `CC[C@H](C)[C@H](NC(C)=O)C(=O)N[C@H]1CSSC[C@@H](C(=O)N[C@H](C(N)=O)[C@@H](C)O)NC(=O)[C@H](CCCNC(=N)N)NC(=O)[C@H](Cc2c[nH]cn2)NC(=O)[C@H](CCCNC(=N)N)NC(=O)CNC(=O)[C@H](Cc2c[nH]c3ccccc23)NC(=O)[C@H](CC(=O)O)NC(=O)[C@H](CCC(N)=O)NC(=O)[C@H](Cc2c[nH]c3ccccc23)NC(=O)[C@H]([C@@H](C)CC)NC1=O` [Compound 18] (Ac-ICIWQDWGRHRCT-NH2; disulfide 2-12) here?
Answer: < 100 nM

Question: With `CC[C@H](C)[C@H](NC(C)=O)C(=O)N[C@H]1CSSC[C@@H](C(=O)N[C@H](C(N)=O)[C@@H](C)O)NC(=O)[C@H](CO)NC(=O)[C@H](Cc2c[nH]cn2)NC(=O)[C@H](C)NC(=O)CNC(=O)[C@H](Cc2c[nH]c3ccccc23)NC(=O)[C@H](CC(=O)O)NC(=O)[C@H](CCC(N)=O)NC(=O)[C@H](Cc2c[nH]c3ccccc23)NC(=O)[C@H]([C@@H](C)CC)NC1=O` [Compound 19] (Ac-ICIWQDWGAHSCT-NH2; disulfide 2-12) as the compound, how does the IC50 read?
Answer: < 250 nM

Question: And the pIC50?
Answer: 6.85

Question: What does the source list for `CC[C@H](C)[C@H](NC(C)=O)C(=O)N[C@H]1CSSC[C@@H](C(=O)N[C@H](C(N)=O)[C@@H](C)O)NC(=O)[C@H](CO)NC(=O)[C@H](Cc2c[nH]cn2)NC(=O)[C@H](CCC(=O)O)NC(=O)CNC(=O)[C@H](Cc2c[nH]c3ccccc23)NC(=O)[C@H](CC(=O)O)NC(=O)[C@H](CCC(N)=O)NC(=O)[C@H](Cc2c[nH]c3ccccc23)NC(=O)[C@H]([C@@H](C)CC)NC1=O` [Compound 20] (Ac-ICIWQDWGEHSCT-NH2; disulfide 2-12)?
Answer: IC50: < 100 nM; pIC50: 7.23

Question: For `CC[C@H](C)[C@@H]1NC(=O)[C@@H](NC(=O)[C@H](Cc2ccccc2)NC(C)=O)CSSC[C@@H](C(=O)N[C@H](C(N)=O)[C@@H](C)O)NC(=O)[C@H](CCCNC(=N)N)NC(=O)[C@H](Cc2c[nH]cn2)NC(=O)[C@H](CCC(=O)O)NC(=O)CNC(=O)[C@H](Cc2c[nH]c3ccccc23)NC(=O)[C@H](CC(=O)O)NC(=O)[C@H](CCC(N)=O)NC(=O)[C@H](Cc2c[nH]c3ccccc23)NC1=O` [Compound 23] (Ac-FCIWQDWGEHRCT-NH2; disulfide 2-12), which IC50 is on record?
Answer: < 100 nM

Question: With `CC[C@H](C)[C@H](NC(C)=O)C(=O)N[C@H]1CSSC[C@@H](C(=O)N[C@H](C(=O)N[C@@H](CCC(=O)O)C(N)=O)[C@@H](C)O)NC(=O)[C@H](CCCNC(=N)N)NC(=O)[C@H](Cc2c[nH]cn2)NC(=O)[C@H](CCC(=O)O)NC(=O)CNC(=O)[C@H](Cc2c[nH]c3ccccc23)NC(=O)[C@H](CC(=O)O)NC(=O)[C@H](CCC(N)=O)NC(=O)[C@H](Cc2c[nH]c3ccccc23)NC(=O)[C@H]([C@@H](C)CC)NC1=O` [Compound 26] (Ac-ICIWQDWGEHRCTE-NH2; disulfide 2-12) as the compound, how does the IC50 read?
Answer: < 100 nM

Question: `CC[C@H](C)[C@H](NC(=O)[C@H](C)NC(=O)[C@H](CO)NC(=O)CNC(=O)[C@H](CCC(=O)O)NC(C)=O)C(=O)N[C@H]1CSSC[C@@H](C(=O)N[C@H](C(N)=O)[C@@H](C)O)NC(=O)[C@H](CCCNC(=N)N)NC(=O)[C@H](Cc2c[nH]cn2)NC(=O)[C@H](CCC(=O)O)NC(=O)CNC(=O)[C@H](Cc2c[nH]c3ccccc23)NC(=O)[C@H](CC(=O)O)NC(=O)[C@H](CCC(N)=O)NC(=O)[C@H](Cc2c[nH]c3ccccc23)NC(=O)[C@H]([C@@H](C)CC)NC1=O` [Compound 29] (Ac-EGSAICIWQDWGEHRCT-NH2; disulfide 6-16) was tested. Which IC50 did it give?
Answer: < 100 nM

Question: `CC[C@H](C)[C@@H]1NC(=O)[C@@H](NC(=O)[C@@H](NC(=O)[C@H](CCC(=O)O)NC(C)=O)[C@@H](C)CC)CSSC[C@@H](C(=O)N[C@H](C(=O)N[C@@H](CCC(=O)O)C(=O)NCC(=O)N[C@@H](CCC(=O)O)C(N)=O)[C@@H](C)O)NC(=O)[C@H](CCCNC(=N)N)NC(=O)[C@H](Cc2c[nH]cn2)NC(=O)[C@H](CCC(=O)O)NC(=O)CNC(=O)[C@H](Cc2c[nH]c3ccccc23)NC(=O)[C@H](CC(=O)O)NC(=O)[C@H](CCC(N)=O)NC(=O)[C@H](Cc2c[nH]c3ccccc23)NC1=O` [Compound 34] (Ac-EICIWQDWGEHRCTEGE-NH2; disulfide 3-13) was tested. Which IC50 did it give?
Answer: < 250 nM
